Test results taken from publication PMC9330476 (Toxins, 2022).
Entries after “also recorded” stand apart in the source; their conditions may differ. Bridge positions count the residues as written; N and C are the ends. Ends that are not written are not given here. I, II: the chains in the order shown.

Tests used:
hα4β2 nAChR = hα4β2 nAChR (Homo sapiens, UniProt P17787+P43681); type: cell-based
hα7 nAChR = hα7 nAChR (Homo sapiens, UniProt P36544); type: cell-based
Chain of hα7 nAChR (P36544 23-502 limits assumed): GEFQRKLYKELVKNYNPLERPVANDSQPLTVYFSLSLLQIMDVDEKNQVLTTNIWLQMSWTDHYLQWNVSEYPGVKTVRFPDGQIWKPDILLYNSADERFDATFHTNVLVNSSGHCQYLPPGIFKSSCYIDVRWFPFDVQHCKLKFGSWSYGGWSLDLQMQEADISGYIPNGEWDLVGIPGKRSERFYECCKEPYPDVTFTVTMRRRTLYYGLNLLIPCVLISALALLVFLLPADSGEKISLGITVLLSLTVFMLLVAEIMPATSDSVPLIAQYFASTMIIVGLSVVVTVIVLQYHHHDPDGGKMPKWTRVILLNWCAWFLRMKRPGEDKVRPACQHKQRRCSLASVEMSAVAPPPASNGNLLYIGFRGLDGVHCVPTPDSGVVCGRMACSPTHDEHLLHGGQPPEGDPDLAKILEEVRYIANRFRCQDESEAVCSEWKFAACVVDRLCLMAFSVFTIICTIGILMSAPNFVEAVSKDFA

Chain of hα4β2 nAChR (P43681 29-627 limits assumed): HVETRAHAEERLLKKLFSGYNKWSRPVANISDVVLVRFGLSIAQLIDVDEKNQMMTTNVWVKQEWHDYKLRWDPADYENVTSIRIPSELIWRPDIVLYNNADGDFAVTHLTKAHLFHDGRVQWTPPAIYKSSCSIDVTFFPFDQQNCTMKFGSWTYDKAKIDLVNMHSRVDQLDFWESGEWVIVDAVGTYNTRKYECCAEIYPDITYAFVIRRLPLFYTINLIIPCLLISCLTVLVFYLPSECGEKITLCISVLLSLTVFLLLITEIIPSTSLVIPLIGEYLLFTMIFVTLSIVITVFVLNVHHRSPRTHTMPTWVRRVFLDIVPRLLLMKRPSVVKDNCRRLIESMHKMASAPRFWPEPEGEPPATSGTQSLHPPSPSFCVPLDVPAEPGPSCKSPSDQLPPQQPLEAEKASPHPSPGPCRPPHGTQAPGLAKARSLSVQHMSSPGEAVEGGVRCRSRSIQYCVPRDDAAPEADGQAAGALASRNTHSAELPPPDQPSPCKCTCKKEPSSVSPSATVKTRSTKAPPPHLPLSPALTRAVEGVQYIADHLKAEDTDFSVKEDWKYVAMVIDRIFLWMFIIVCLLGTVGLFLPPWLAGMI
Chain of hα4β2 nAChR (P17787 26-502 limits assumed): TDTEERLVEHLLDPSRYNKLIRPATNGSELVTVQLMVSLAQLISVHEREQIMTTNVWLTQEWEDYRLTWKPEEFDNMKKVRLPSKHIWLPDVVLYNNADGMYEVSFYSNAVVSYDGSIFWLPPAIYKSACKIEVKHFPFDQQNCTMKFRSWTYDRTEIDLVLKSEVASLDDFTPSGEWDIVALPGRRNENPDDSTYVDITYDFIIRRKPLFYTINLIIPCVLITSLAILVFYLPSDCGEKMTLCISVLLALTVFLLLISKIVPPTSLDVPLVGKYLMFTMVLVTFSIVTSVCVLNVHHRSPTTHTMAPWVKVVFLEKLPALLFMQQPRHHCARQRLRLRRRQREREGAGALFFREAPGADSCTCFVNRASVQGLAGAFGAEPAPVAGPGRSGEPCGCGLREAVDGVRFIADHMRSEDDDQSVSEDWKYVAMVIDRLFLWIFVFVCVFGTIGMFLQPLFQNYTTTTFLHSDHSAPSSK

“I: EARITCQPRGRSKWGRCCLTQMCGNYCCYKHGCRCVYHSWRGHGCSC / II: EARITCQPRGRSKWGRCCLTQMCGNYCCYKHGCRCVYHSWRGHGCSC (disulfide I:6-II:18, I:17-I:27, I:18-II:6, I:23-I:35, I:28-I:45, I:33-I:47, II:17-II:27, II:23-II:35, II:28-II:45, II:33-II:47) [αD-FrXXA]” was tested, and the “dissociation / reversibility on hα4β2” value (hα4β2 nAChR) was “the fastest was for hα4β2 subtype; also recorded: reversible almost entirely within a few minutes of washing” and the “dissociation / reversibility on hα7” value (hα7 nAChR) was “the slower dissociation was for hα7 subtype (almost irreversible)”.
